Experimental findings from ChEMBL document CHEMBL1201862, “PubChem BioAssay data set” (2004) are described below.

Common to all, as to assay: DTP human tumour cell line panel, 48 h
The test system of test [1] is CCRF-CEM.
Test [2] relates to DU-145.
Test [3] relates to HOP-62.
Test [4] has as its system HOP-92.
The test system of test [5] is HT-29.
Test [6] relates to Hs-578T.
For test [7], the system named is KM12.
Test [8] relates to MDA-MB-231.
Test [9] has as its system NCI-H23.
Test [10] concerns NCI-H522.
The test system of test [11] is NCI/ADR-RES.
The subject of test [12] is RXF 393.
In test [13] the test system is SK-MEL-2.
Test [14] has as its system SK-MEL-5.
Test [15] concerns SW-620.
For test [16], the system named is TK-10.
In test [17] the test system is UO-31.
In test [18] the test system is SF-539.
Test [19] has as its system SK-OV-3.
Test [20] has as its system HCC 2998.

The structures appear in SMILES notation.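 Five concentrations, 48 hours, 96-well plates. GI50: concentration for 50% inhibition of growth.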 Activity calls are given as the source filed them. No stated cut-off is given here; in the data, active = GI50 up to about 1.1 µM and inactive = higher.

Consider `Cc1cnc2cc(Cl)ccc2c1SCC(=O)O`, for which the GI50 (as a rule, the concentration that inhibits growth by half) is > 100 µM (inactive) in [1]; > 100 µM (inactive) in test [2]; > 100 µM (inactive) in test [3]; > 100 µM (inactive) in [4]; > 100 µM (inactive) in test [5]; 93.5 µM (inactive) in test [6]. For the same compound, the GI50 in test [7], in [8], in test [9], in [10], in test [11] and in test [12] was > 100 µM (inactive) throughout. Moreover, the GI50 in test [13], in [14], in [15], in [16] and in test [17] was > 100 µM (inactive) each time.

Take `CCCc1cn2c(/C=N/NC(=N)N)c(-c3cc([N+](=O)[O-])c(Cl)cc3Cl)nc2s1`: the GI50 in test [1] was 0.216 µM (active); in [2], 1.82 µM (inactive); in test [3] it was 1.58 µM (inactive); in [4], 1.69 µM (inactive); in [5], 1.22 µM (inactive); in test [6], 1.85 µM (inactive). For the same compound, the GI50 in test [7] was 1.5 µM (inactive); in test [8], 1.63 µM (inactive); in [9], 1.67 µM (inactive); in test [10], 2.18 µM (inactive); in test [11], 1.99 µM (inactive); in test [12] it was 1.9 µM (inactive). Further, the GI50 in [18] was 1.88 µM (inactive); in test [13] it was 1.87 µM (inactive); in test [14] it was 1.61 µM (inactive); in test [19] it was 1.91 µM (inactive); in [15], 1.61 µM (inactive); in test [16] it was 1.12 µM (inactive). Besides, in test [17], the GI50 was 1.79 µM (inactive).

Turning to `CCCCCCSc1nc(COC(=O)NC)c(COC(=O)NC)n1C`, the GI50 in test [1], in test [2], in [3], in [5], in test [6] and in [7] was > 100 µM (inactive) in each case. The GI50 in [8], in test [9], in test [10], in test [11], in test [18] and in [13] was > 100 µM (inactive) throughout. The GI50 in test [14], in test [19], in test [15], in [16] and in test [17] was > 100 µM (inactive) each time.

Consider `Clc1nc(Nc2nc3ccccc3[nH]2)nc(Cl)c1Cc1ccccc1`, for which the GI50 is 63.5 µM (inactive) in test [1]; > 100 µM (inactive) in test [2]; 23 µM (inactive) in [4]; 54.1 µM (inactive) in test [5]; 32.4 µM (inactive) in [6]; 81.7 µM (inactive) in [7]. Besides, the GI50 in test [8] is 30.7 µM (inactive); in test [9], > 100 µM (inactive); in test [10], 37 µM (inactive); in test [11], > 100 µM (inactive); in [12], > 100 µM (inactive); in test [18] it was 31.2 µM (inactive). Also, the GI50 in test [13], in [14], in test [19], in test [15], in [16] and in test [17] was > 100 µM (inactive) in each case.

For `O=[N+]([O-])/C(C(Cl)=C(Cl)Cl)=C(\Nc1cccc2cccnc12)Sc1ccccc1`, the GI50 in test [1] is 27.7 µM (inactive); in test [2] it was 22.9 µM (inactive); in test [20], 78.2 µM (inactive); in [3], 23.4 µM (inactive); in test [5], 23.4 µM (inactive); in test [6], 13.4 µM (inactive). In addition, the GI50 in test [7] was 12.6 µM (inactive); in test [8] it was 18.2 µM (inactive); in test [9] it was 18.3 µM (inactive); in [11], 22.1 µM (inactive); in test [18], 20.8 µM (inactive); in test [13], 17.1 µM (inactive). For the same compound, the results for the GI50 in test [19], in [15] and in test [17] were 34.2 µM (inactive), 18 µM (inactive) and 18.9 µM (inactive), respectively.

Consider `CC(=O)N1C(Nc2cnc3ccccc3c2)CCN1c1ccccc1` (configuration not stated), for which the GI50 in [1], in [2], in [20], in test [3], in test [5] and in test [6] was > 10 µM (inactive) throughout. The GI50 in test [8], in test [9], in test [10], in test [11], in [12] and in [18] was > 10 µM (inactive) in each case. For the same compound, the GI50 in test [13] is > 10 µM (inactive); in test [14] it was > 10 µM (inactive); in test [19], > 10 µM (inactive); in [15] it was 4.78 µM (inactive); in test [16], > 10 µM (inactive); in test [17] it was > 10 µM (inactive).

Consider `O=C(O)CSc1ncccc1[N+](=O)[O-]`, for which the GI50 in test [1], in test [2], in [3], in [4], in test [5] and in test [6] was > 100 µM (inactive) throughout. In addition, the GI50 in test [7], in test [8], in test [9], in test [10], in [11] and in test [12] was > 100 µM (inactive) each time. Further, the GI50 in test [18], in test [13], in [14], in test [19], in [15] and in test [16] was > 100 µM (inactive) throughout. For the same compound, the GI50 in test [17] is > 100 µM (inactive).

In the case of `CC1=C(C(=O)OC(C)C)C(c2ccccc2C(F)(F)F)C(C(=O)OC(CO[N+](=O)[O-])CO[N+](=O)[O-])=C(C)N1` (configuration not stated), the GI50 is 2.72 µM (inactive) in test [1]; 16.6 µM (inactive) in test [2]; 21.6 µM (inactive) in test [20]; 11 µM (inactive) in test [3]; 5.79 µM (inactive) in test [5]; 15.8 µM (inactive) in test [6]. In addition, the GI50 is 5.14 µM (inactive) in test [7]; 12.3 µM (inactive) in [8]; 12.7 µM (inactive) in test [9]; 3.35 µM (inactive) in [10]; 4.39 µM (inactive) in test [11]; 9.16 µM (inactive) in test [12]. The GI50 in test [18] was 9.48 µM (inactive); in test [13], 14.1 µM (inactive); in test [14], 5.52 µM (inactive); in [19] it was 11.2 µM (inactive); in [15] it was 5.79 µM (inactive); in [16], 23.9 µM (inactive). For the same compound, the GI50 in [17] was 1.95 µM (inactive).

For `CSc1nc2ccccc2c(=O)n1/N=C1\C(=O)N(CN2CCOCC2)c2ccc(Cl)cc21`, the GI50 was 10.6 µM (inactive) in [1]; 18.5 µM (inactive) in test [2]; 34.3 µM (inactive) in test [3]; 67 µM (inactive) in [4]; 23.7 µM (inactive) in test [5]; 44.2 µM (inactive) in test [6]. The GI50 is 29.5 µM (inactive) in test [7]; 47.4 µM (inactive) in [8]; 21.8 µM (inactive) in test [9]; 31.1 µM (inactive) in test [10]; > 100 µM (inactive) in test [11]; 18.1 µM (inactive) in test [12]. The GI50 is 26.7 µM (inactive) in test [18]; 20.6 µM (inactive) in [13]; 38.7 µM (inactive) in test [14]; 30.6 µM (inactive) in [19]; 17.6 µM (inactive) in test [15]; 16.9 µM (inactive) in [16]. Moreover, the GI50 in test [17] is 28.1 µM (inactive).

Consider `O=C1NC(c2cccc3ccccc23)Nc2ccc(Cl)cc21` (configuration not stated), for which the GI50 was 0.000618 µM (active) in test [1]; 0.00452 µM (active) in test [2]; 0.0105 µM (active) in test [20]; 0.00261 µM (active) in [3]; 0.00166 µM (active) in test [5]; 0.000624 µM (active) in test [6]. Besides, the GI50 in test [7] was 0.0022 µM (active); in [8], 0.00838 µM (active); in test [9], 0.0579 µM (active); in test [10], 0.000546 µM (active); in test [11], 0.00111 µM (active); in test [12], 0.00394 µM (active). The GI50 in test [18] was < 0.01 µM (active); in test [13] it was 0.00204 µM (active); in [14] it was 0.00106 µM (active); in test [19], 0.00105 µM (active); in test [15], 0.00168 µM (active); in test [17] it was 0.00319 µM (active).

Consider `N=c1oc2cc(O)ccc2cc1C(=O)NCc1ccccc1`, for which the GI50 is 9.42 µM (inactive) in [1]; 16.6 µM (inactive) in [2]; 31.1 µM (inactive) in test [3]; 18.8 µM (inactive) in [5]; 15.3 µM (inactive) in [6]; 32.3 µM (inactive) in test [7]. In addition, the GI50 was 24 µM (inactive) in [8]; 19.5 µM (inactive) in [9]; 16.3 µM (inactive) in [10]; 19.7 µM (inactive) in test [11]; 19.5 µM (inactive) in [12]; 21.9 µM (inactive) in test [18]. The GI50 in [13] was 14.4 µM (inactive); in test [14], 12.9 µM (inactive); in test [19], 16.2 µM (inactive); in test [15], 22.6 µM (inactive); in [16], 32.1 µM (inactive); in [17], 25.6 µM (inactive).
